Test results from US9809521B2, “Cannabidinoid derivatives” (priority 2011, dated 2017).
Entries after “also recorded” stand apart in the source; their conditions may differ. Read-outs that look alike come from different tables or passages of the source. Marks after values point to notes of the source that are not given here.

How the values were obtained:
MDA-MB231 cells [1] = experiment: MTT cell proliferation/viability assay
Text: (§1) The structure of O-1442 and O-1663 are almost identical with the exception of one R group. A smaller subset of the same analogs, including O-1442 and O-1663, were further screened for their ability to inhibit 4T1 breast cancer cell viability in anticipation of running in vivo experiments in immune competent mice (TABLE 5).
(§2) To directly test whether the O-1663 CBD analog could co-target two distinct cannabinoid antitumor pathways, the effects of CBD and the O-1663 CBD analog on cell viability with multiple antagonists were probed (FIG. 25). […] The ability of the O-1663 CBD analog and CBD to inhibit invasion was next compared (FIG. 25, panel C).

Id-1 = experiment: Quantitative Western analysis of Id-1 protein expression in MDA-MB231 cells; format: cell-based, human; conditions: 1.5 μM, two days
Protocol: Quantitative Western analysis of Id-1 Expression in MDA-MB231 cells with CBD, Δ^9-THC, or WIN 55,212-2. The ability of CBD to regulate the expression of key genes that control breast cancer cell aggressiveness and invasiveness was determined.
SAR Analysis of Id-1 expression in MDA-MB231 cells with (Abn)-CBD receptor, Abn-CBD, O-1602, CP55,940, THC, CBN, or CBD. In order to determine the structure activity relationship (“SAR”) between cannabinoids and the inhibition of Id-1, MDA-MB231 cells were treated for two days with multiple cannabinoid compounds and Id-1 protein levels were assessed.
Quantitative Western analysis of Id-1 expression in MDA-MB231 cells and U251 cells with CBD or O-1663 CBD analog. […] MDA-MB231 breast cancer cells and U251 GBM cells were treated with 1.0 μM of cannabinoid for two days and then analyzed for Id-1 protein expression by quantitative Western analysis.

MDA-MB436 cells = experiment: MTT cell proliferation assay; conditions: read-out: IC50, antiproliferative, MDA-MB436
SF126 cells = experiment: MTT cell proliferation assay; conditions: read-out: IC50, SF126
MDA-MB231 cells [2] = experiment: Boyden chamber invasion assay; format: cell-based, human; conditions: 0.1, 1.0 or 1.5 μM
Protocol: Boyden chamber MDA-MB231 cell invasion studies with CBD, Δ^9-THC, or WIN 55,212-2. Invasion is an important step towards breast cancer cell metastasis. Therefore, the effects of several cannabinoids were tested on their ability to modulate the migratory and invasiveness activity of the most aggressive human breast cancer cell line, MDA-MB231, in a reconstituted basement membrane in a Boyden chamber.
Assays using Id-1 promoter reporter transfected MDA-MB231 cells with CBD. To determine if Id-1 represented a key mediator of CBD effects in highly aggressive breast cancer cells, Id-1 was constitutively expressed into MDA-MB231 cells (+)Id-1 as described in FIG. 2. The ectopic Id-1 gene, which is not under the control of the endogenous promoter, was introduced in the cells using the pLXSN retroviral vector. As a control, cells were infected with an empty pLXSN vector (−)Id-1.
Boyden chamber MDA-MB231 cell invasion studies with CBD and O-1663 CBD analog. Boyden chamber studies for invasion by MDA-MB231 or U251 cells were performed with either CBD or O-1663 CBD analog.
as §2

U87 cells = experiment: MTT cell proliferation assay; conditions: read-out: IC50, U87; seven day treatment; 95% confidence limits in brackets
U251 cells [3] = experiment: MTT cell proliferation assay; conditions: read-out: IC50, U251; seven day treatment; 95% confidence limits in brackets
4T1 cells = experiment: Cell viability assay; format: cell-based, mouse; conditions: Table 5; read-out: IC50, 4T1 cell viability
Text: as §1

U251 cells [4] = experiment: Boyden chamber invasion assay; format: cell-based, human
Text: Boyden chamber U251 cell invasion studies with CBD and/or Δ^9-THC. In addition to uncontrolled cell growth, a hallmark phenotype of aggressive GBM tumor cells is their ability to migrate away for the primary tumor of origin and invade into neighboring CNS tissue.

ROS = ROS measurement in MDA-MB231 cells; format: cell-based, human; conditions: two days; approximate IC50 for CBD and THC
Text: In culture, CBD-induced generation of ROS is a primary mechanism that leads to inhibition of cell growth, invasion, and survival across multiple cancers. The generation of ROS by CBD leads to the inhibition of Id-1 expression in breast cancer cells. […] The ability of CBD and the O-1663 CBD analog to stimulate the production of ROS was next compared. […] The involvement of CB2 receptors in the productions of ROS produced by CBD and the O-1663 CBD analog was next investigated.

U251 cells [5] = experiment: Cell cycle analysis (PI staining, FACS); format: cell-based, human; conditions: THC 1.7 μM, CBD 0.4 μM
Protocol: Cell cycle analysis: U251 cells were grown in Petri dishes (100 mm×15 mm) and received drug treatments for 2 days. On the third day, the cells were harvested and centrifuged at 1200 rpm for 5 minutes. The pellet was washed 1× with PBS+1% BSA, and centrifuged again. The pellet was re-suspended in 0.5 ml of 2% paraformaldehyde (diluted with PBS) and left to fix overnight at room temperature. The next day the cells were pelleted and re-suspended in 0.5 ml 0.3% Triton in PBS and incubated for 5 minutes at room temperature. The cells were then washed 2 times with PBS+1% BSA. The cells were finally suspended in PBS (0.1% BSA) with 10 ug/ml Propidium Iodide and 100 μg/ml RNAse. The cells were incubated for 30 minutes at room temperature before being stored at 4° C. Cell cycle was measured using a FACS Calibur using Cell Quest Pro and Modfit software.
Apoptosis Studies using U251 cells with Δ^9-THC and/or CBD. […] Therefore, U251 cells were treated with THC and CBD alone or with the combination of the two, and cell cycle was analyzed using cell flow cytometery (FIG. 20). […] Additionally, there was an increase in the population of cells in the G2/M phase. These changes in G1, S and G2/M phase are hallmarks of cell cycle arrest.
(§3) Albeit, the magnitude of these effects was reduced compared to those observed with the combination treatment.

U251 cells [6] = experiment: Apoptosis (annexin staining, FACS); format: cell-based, human
Protocol: Apoptosis: Cells were grown in 6 well culture dishes and were treated with compounds of the disclosure every 24 hours for three days. […] The labeled cells were analyzed by flow cytometry. Cell Flow Cytometry in combination with PI and annexin staining was used to quantify the percentage of cells undergoing apoptosis in control and treatment groups. Percent control was calculated as annexin positive staining in treated cells/control cells×100. PI staining was used to distinguish necrotic cells from those undergoing apoptosis.
as §3
The concentrations of the individual cannabinoids (THC and CBD) were next increased in order to attempt to match levels of apoptosis produced by the combination treatment. The purpose of these experiments was to determine whether the compounds alone recruited similar pathways as compared to the combination of THC and CBD. […] However, THC alone could not produce the level of apoptosis observed with the combination treatment (FIG. 23, panel A and B).

caspase 3, 7, 9 and PARP = experiment: Western analysis of caspases and PARP in U251 cells; format: cell-based, human; conditions: THC 1.7 μM, CBD 0.4 μM, three days
Text: Caspases play a primary role in the regulation of programmed cell death.

pERK, JNK, p38 MAPK = experiment: Western analysis of MAPK activity in U251 cells
[7] = Homo sapiens, MDA-MB-231, 72 h, read-out: IC50, antiproliferative, MDA-MB231
[8] = read-out: IC50, antiproliferative, MDA-MB231, treated for three days, MTT, confidence limits in brackets
[9] = treated for three days, MTT, confidence limits in brackets
[10] = seven day treatment, 95% confidence limits in brackets

Compound: CCCCCCC(C)(C)c1ccc([C@@H]2C[C@H](O)CC[C@H]2CCCO)c(O)c1 [CP 55, 940]
- IC50 (MDA-MB231 cells [1]; [7]): 2.5 µM
- inhibition of Id-1 (structure activity relationship) (Id-1): less effective than CBD; also recorded: small inhibition of Id-1; also recorded: partially inhibit Id-1
- IC50 (MDA-MB436 cells; Homo sapiens, MDA-MB-436, 72 h): 1.3 µM
- IC50 (SF126 cells; Homo sapiens, SF-126, 72 h): 3.3 µM

Compound: C=C(C)[C@@H]1CCC(C)=C[C@H]1c1c(C)cc(O)cc1O [Compound 0-1602]
- inhibition of Id-1 (structure activity relationship) (Id-1): No inhibition of Id-1

Compound: CCCCCc1cc(O)c2c(c1)OC(C)(C)c1ccc(C)cc1-2 [CBN, cannabinol]
- inhibition of Id-1 (structure activity relationship) (Id-1): partially inhibit Id-1

Compound: Cc1c(C(=O)c2cccc3ccccc23)c2cccc3c2n1[C@H](CN1CCOCC1)CO3 [WIN 55, 212-2]
- IC50 (MDA-MB231 cells [1]; [8]): 1.7 µM
- invasion of MDA-MB231 cells (MDA-MB231 cells [2]): significantly reduced the invasion
- IC50 (MDA-MB436 cells; [9]): 2.4 µM
- IC50 (SF126 cells; [10]): 0.84 µM
- IC50 (SF126 cells; three day treatment, Table 3): 1.3 µM
- IC50 (U87 cells): 0.77 µM
- IC50 (U251 cells [3]): 1.1 µM

Compound: CCCCCc1cc(O)c(C/C=C(\C)CCC=C(C)C)c(O)c1 [CBG, cannabigerol]
- IC50 (MDA-MB231 cells [1]; [7]): 2.3 µM
- IC50 (MDA-MB436 cells; Homo sapiens, MDA-MB-436, 72 h): 2.1 µM
- IC50 (SF126 cells; Homo sapiens, SF-126, 72 h): 1.6 µM

Compound: CCCCCCC(C)(C)c1cc(OC)c(C2(O)CCCC(C)C2)c(OC)c1 (stereo not drawn) [Compound O-2137]
- Percent inhibition of cell viability, MDA-MB231 (MDA-MB231 cells [1]; at 5 μM): 45%^a
- IC50 (4T1 cells): 3.5 µM

Compound: C=C(C)[C@@H]1CCC(C)=C[C@H]1c1c(O)cc(O)cc1CCCCC [Abn-CBD]
- inhibition of Id-1 (structure activity relationship) (Id-1): No inhibition of Id-1

Compound: CCCCCc1cc(O)c2c(c1)OC(C)(C)[C@@H]1CCC(C)=C[C@@H]21 [THC, Δ^9-tetrahydrocannabinol]
- IC50 (MDA-MB231 cells [1]; read-out: IC50, MDA-MB231 cell viability, Table 5): 3 µM
- IC50 (MDA-MB231 cells [1]; [8]): 1.2 µM
- invasion of MDA-MB231 cells (MDA-MB231 cells [2]): significantly reduced the invasion
- inhibition of Id-1 (structure activity relationship) (Id-1): had no activity against Id-1; also recorded: No inhibition of Id-1
- invasiveness of U251 cells (U251 cells [4]): effectively inhibited the invasiveness of U251 cells
- IC50 (U251 cells [4]; Boyden chamber, limits 49-150, read-out: predicted IC50, U251 cell invasiveness): 0.085 µM
- IC50 (4T1 cells): 2.3 µM
- generation of ROS (ROS): no significant increase in ROS
- cell cycle phases (U251 cells [5]): increases in the population of cells in G1 and G2/M phase and decreases in cells in S phase
- block of apoptosis by CB2 antagonist SR144528 (U251 cells [6]; 0.5 μM SR144528, combination 1.7/0.4 μM, 2.5 μM THC, 2.0 μM CBD): partially blocked by the CB2 antagonist
- block of apoptosis by α-tocopherol (U251 cells [6]; 20 μM α-tocopherol, combination 1.7/0.4 μM, 2.5 μM THC, 2.0 μM CBD): completely blocked by α-tocopherol
- apoptosis (annexin) (U251 cells [6]; THC 1.7 μM, CBD 0.4 μM, three days): did not produce significant changes in apoptosis
- caspase 3, 7, 9 and PARP (caspase 3, 7, 9 and PARP): Small increases in the activity of caspase 7, caspase 9 and PARP but not caspase 3
- IC50 (MDA-MB436 cells; [9]): 2.5 µM
- IC50 (SF126 cells; [10]): 0.9 µM
- IC50 (SF126 cells; three day treatment, Table 3): 2.5 µM
- IC50 (U87 cells): 1.6 µM
- IC50 (U251 cells [3]): 1.1 µM
- p-ERK, higher concentrations alone (pERK, JNK, p38 MAPK; 2.5 μM Δ^9-THC, 2.0 μM CBD, three days): had no effect on p-ERK activity
- pERK (pERK, JNK, p38 MAPK; THC 1.7 μM, CBD 0.4 μM, two days): no changes in pERK were observed
